Assay results: ChEMBL document CHEMBL1201862, “PubChem BioAssay data set” (2004)
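1) Cells in 96-well plates. 2) Compound, 48 h, 5 concentrations. 3) Linear interpolation between surrounding doses. 4) Unreached endpoint = highest concentration. GI50 is the concentration that inhibits growth by half.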 Active and inactive are the calls of the source. Rule as the data show it: active = GI50 up to about 1.1 µM and inactive = higher.

Assays:
Assay in all cases: inhibition of tumour cell growth, NCI panel, 48 h
[1] = test system: 786-0
[2] = test system: A498
[3] = test system: A549
[4] = test system: ACHN
[5] = test system: CAKI-1
[6] = test system: CCRF-CEM
[7] = test system: COLO 205
[8] = test system: DLD-1
[9] = test system: DMS-114
[10] = test system: DMS-273
[11] = test system: EKVX
[12] = test system: HCC 2998
[13] = test system: HCT-15
[14] = test system: HL-60
[15] = test system: HOP-18
[16] = test system: HOP-62
[17] = test system: HOP-92
[18] = test system: HT-29
[19] = test system: IGROV-1
[20] = test system: K562
[21] = test system: KM-20L2
[22] = test system: KM12
[23] = test system: LOX IMVI
[24] = test system: LXFL 529
[25] = test system: M14
[26] = test system: M19-MEL
[27] = test system: MOLT-4
[28] = test system: Malme-3M
[29] = test system: NCI-H226
[30] = test system: NCI-H23
[31] = test system: NCI-H460
[32] = test system: NCI-H522
[33] = test system: OVCAR-3
[34] = test system: OVCAR-4
[35] = test system: OVCAR-8
[36] = test system: RPMI-8226
[37] = test system: RXF 393
[38] = test system: SF-268
[39] = test system: SF-295
[40] = test system: SF-539
[41] = test system: SK-MEL-28
[42] = test system: SK-MEL-2
[43] = test system: SK-MEL-5
[44] = test system: SK-OV-3
[45] = test system: SN12C
[46] = test system: SNB-19
[47] = test system: SNB-75
[48] = test system: SR
[49] = test system: SW-620
[50] = test system: TK-10
[51] = test system: U-251
[52] = test system: UACC-257
[53] = test system: UACC-62
[54] = test system: UO-31
[55] = test system: XF498

Cn1cc(C(=O)NCCC(=N)N)cc1NC(=O)C1=[N+](C)C=C(NC(=O)c2cccc(C(=O)NC3=CC(C(=O)Nc4cc(C(=O)NCCC(=N)N)cn4C)=[N+](C)C3)c2)C1
GI50 [1]: 37.8 µM (inactive) | GI50 [2]: > 100 µM (inactive) | GI50 [3]: > 100 µM (inactive) | GI50 [4]: > 100 µM (inactive) | GI50 [5]: > 100 µM (inactive) | GI50 [6]: > 100 µM (inactive) | GI50 [7]: 50.7 µM (inactive) | GI50 [8]: > 100 µM (inactive) | GI50 [9]: 70.6 µM (inactive) | GI50 [10]: 59.8 µM (inactive) | GI50 [11]: > 100 µM (inactive) | GI50 [12]: 99.8 µM (inactive) | GI50 [13]: > 100 µM | GI50 [14]: > 100 µM (inactive) | GI50 [15]: > 100 µM (inactive) | GI50 [16]: > 100 µM (inactive) | GI50 [17]: > 100 µM (inactive) | GI50 [18]: > 100 µM (inactive) | GI50 [19]: > 100 µM (inactive) | GI50 [20]: 83.8 µM (inactive) | GI50 [21]: > 100 µM (inactive) | GI50 [22]: 36.3 µM (inactive) | GI50 [23]: > 100 µM (inactive) | GI50 [24]: > 100 µM (inactive) | GI50 [25]: > 100 µM (inactive) | GI50 [26]: > 100 µM (inactive) | GI50 [27]: > 100 µM (inactive) | GI50 [28]: 24.8 µM (inactive) | GI50 [29]: > 100 µM (inactive) | GI50 [30]: > 100 µM (inactive) | GI50 [31]: > 100 µM (inactive) | GI50 [32]: > 100 µM (inactive) | GI50 [33]: > 100 µM (inactive) | GI50 [34]: > 100 µM (inactive) | GI50 [35]: > 100 µM (inactive) | GI50 [36]: > 100 µM (inactive) | GI50 [37]: 35.3 µM (inactive) | GI50 [38]: > 100 µM (inactive) | GI50 [39]: > 100 µM (inactive) | GI50 [40]: 41.2 µM (inactive) | GI50 [41]: > 100 µM (inactive) | GI50 [42]: > 100 µM (inactive) | GI50 [43]: 42.3 µM (inactive) | GI50 [44]: > 100 µM (inactive) | GI50 [45]: 88.5 µM (inactive) | GI50 [46]: > 100 µM (inactive) | GI50 [47]: > 100 µM (inactive) | GI50 [48]: > 100 µM (inactive) | GI50 [49]: > 100 µM (inactive) | GI50 [50]: > 100 µM (inactive) | GI50 [51]: > 100 µM (inactive) | GI50 [52]: 93.1 µM (inactive) | GI50 [53]: 37.8 µM (inactive) | GI50 [54]: > 100 µM (inactive) | GI50 [55]: > 100 µM (inactive)
